Data from patent US9511073B2, “Aromatic amides and uses thereof” (TAXIS Pharmaceuticals, Inc., priority 2011, dated 2016).
Values after ≈ are worked out from the molar mass of the structure shown.

Test system: Staphylococcus aureus (Isolate ID ATCC 29213)
Assay: Bacterial assay: MIC by broth microdilution or agar dilution (CLSI), S. aureus ATCC 29213
Format: cell-based
Details: Staphylococcus aureus, ATCC29213, read-out: S. aureus MIC (μg/mL) Activity Range, S. aureus (ATCC29213)
How it was run: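 MICs by CLSI broth microdilution or agar dilution against S. aureus ATCC 29213 and its FtsZ-G196A mutant. Values reported as ranges: A ≤0.25 μg/mL, B >0.25–1.0, C >1.0–16, D >16 μg/mL.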

| Structure (SMILES) | MIC [µg/mL] |
| --- | --- |
| COc1ncccc1CNC(=O)OCC(Oc1ccc(F)c(C(N)=O)c1F)c1nc(-c2ccc(C(F)(F)F)cc2)c(Br)o1 (centres unmarked) [Compound 196, 2-(5-bromo-4-(4-(trifluoromethyl)phenyl)oxazol-2-yl)-2-(3-carbamoyl-2,4-difluorophenoxy)ethyl ((2-methoxypyridin-3-yl)methyl)carbamate] | < 0.25 |
| CCCC(Oc1ccc(F)c(C(N)=O)c1F)c1nc(-c2ccc(Cl)cc2)c(Br)o1 (centres unmarked) [Compound 23] | 1 to 16 (≈ 2.06 to 32.9 µM) |
| Cn1cncc1CNC(=O)OCC(Oc1ccc(F)c(C(N)=O)c1F)c1nc(-c2ccc(C(F)(F)F)cc2)c(Br)o1 (centres unmarked) [Compound 195, 2-(5-bromo-4-(4-(trifluoromethyl)phenyl)oxazol-2-yl)-2-(3-carbamoyl-2,4-difluorophenoxy)ethyl ((1-methyl-1H-imidazol-5-yl)methyl)carbamate] | 1 to 16 (≈ 1.55 to 24.8 µM) |
| NC(=O)c1c(F)ccc(OC(C(N)=O)c2nc(-c3ccc(Cl)cc3)cs2)c1F (centres unmarked) [Compound 40, 3-(2-amino-1-(4-(4-chlorophenyl)thiazol-2-yl)-2-oxoethoxy)-2,6-difluorobenzamide] | 1 to 16 (≈ 2.36 to 37.8 µM) |
| CCOc1cnc2sc(C(C)Oc3ccc(F)c(C(N)=O)c3F)nc2c1 (centres unmarked) [Compound 29, 3-(1-(6-ethoxythiazolo[5,4-b]pyridin-2-yl)ethoxy)-2,6-difluorobenzamide] | 1 to 16 (≈ 2.64 to 42.2 µM) |
| CN(C)CCNC(=O)OCC(Oc1ccc(F)c(C(N)=O)c1F)c1nc(-c2ccc(C(F)(F)F)cc2)c(Br)o1 (centres unmarked) [Compound 134, 2-(5-bromo-4-(4-(trifluoromethyl)phenyl)oxazol-2-yl)-2-(3-carbamoyl-2,4-difluorophenoxy)ethyl (2-(dimethylamino)ethyl)carbamate] | 1 to 16 (≈ 1.61 to 25.8 µM) |
| CN(Cc1ccncn1)C(=O)OCC(Oc1ccc(F)c(C(N)=O)c1F)c1nc(-c2ccc(C(F)(F)F)cc2)c(Br)o1 (centres unmarked) [Compound 197, 2-(5-bromo-4-(4-(trifluoromethyl)phenyl)oxazol-2-yl)-2-(3-carbamoyl-2,4-difluorophenoxy)ethyl methyl(pyrimidin-4-ylmethyl)carbamate] | 0.25 to 1 (≈ 0.381 to 1.52 µM) |
| Cc1noc(CNC(=O)OCC(Oc2ccc(F)c(C(N)=O)c2F)c2nc(-c3ccc(C(F)(F)F)cc3)c(Br)o2)n1 (centres unmarked) [Compound 179, 2-(5-bromo-4-(4-(trifluoromethyl)phenyl)oxazol-2-yl)-2-(3-carbamoyl-2,4-difluorophenoxy)ethyl ((3-methyl-1,2,4-oxadiazol-5-yl)methyl)carbamate] | < 0.25 |
| CC(Oc1ccc(F)c(C(N)=O)c1F)c1nc(-c2ccc(Cl)cc2)c(Br)o1 (centres unmarked) [Compound 1] | < 0.25 |
| NC(=O)c1c(F)ccc(OC(COC(=O)CCC(=O)O)c2nc(-c3ccc(F)cc3F)c(Br)o2)c1F (centres unmarked) [Compound 263, 4-(2-(5-bromo-4-(2,4-difluorophenyl)oxazol-2-yl)-2-(3 carbamoyl-2,4-difluorophenoxy)ethoxy)-4-oxobutanoic acid] | 1 to 16 (≈ 1.74 to 27.8 µM) |
| NC(=O)c1c(F)ccc(OC(CNC(=O)c2cccnc2)c2nc(-c3ccc(C(F)(F)F)cc3)co2)c1F (centres unmarked) [Compound 293, N-(2-(3-carbamoyl-2,4-difluorophenoxy)-2-(4-(4-(trifluoromethyl)phenyl)oxazol-2-yl)ethyl)nicotinamide] | > 16 |
| CNCCNC(=O)OCC(Oc1ccc(F)c(C(N)=O)c1F)c1nc(-c2ccc(C(F)(F)F)cc2)c(Br)o1 (centres unmarked) [Compound 154, 2-(5-bromo-4-(4-(trifluoromethyl)phenyl)oxazol-2-yl)-2-(3-carbamoyl-2,4-difluorophenoxy)ethyl (2-(methylamino)ethyl)carbamate] | 1 to 16 (≈ 1.65 to 26.3 µM) |
| NC(=O)c1c(F)ccc(OC(CO)c2coc(-c3ccc(C(F)(F)F)cc3)n2)c1F (centres unmarked) [Compound 136, 2,6-difluoro-3-(2-hydroxy-1-(2-(4-(trifluoromethyl)phenyl)oxazol-4-yl)ethoxy)benzamide] | 1 to 16 (≈ 2.33 to 37.4 µM) |
| Cc1ccc(-c2nc(C(CO)Oc3ccc(F)c(C(N)=O)c3F)oc2Br)s1 (centres unmarked) [Compound 244, 3-(1-(5-bromo-4-(5-methylthiophen-2-yl)oxazol-2-yl)-2-hydroxyethoxy)-2,6-difluorobenzamide] | 1 to 16 (≈ 2.18 to 34.8 µM) |
| NC(=O)c1c(F)ccc(OC(COC(=O)NCCO)c2nc(-c3ccc(C(F)(F)F)cc3)c(Br)o2)c1F (centres unmarked) [Compound 163, 2-(5-bromo-4-(4-(trifluoromethyl)phenyl)oxazol-2-yl)-2-(3-carbamoyl-2,4-difluorophenoxy)ethyl (2-hydroxyethyl)carbamate] | 0.25 to 1 (≈ 0.421 to 1.68 µM) |
| NC(=O)c1c(F)ccc(OC(CCO)c2nc(-c3ccc(C(F)(F)F)cc3)c(Br)o2)c1F (centres unmarked) [Compound 73, 3-(1-(5-bromo-4-(4-(trifluoromethyl)phenyl)oxazol-2-yl)-3-hydroxypropoxy)-2,6-difluorobenzamide] | 0.25 to 1 (≈ 0.48 to 1.92 µM) |
| COc1ccc(-c2nc(C(CO)Oc3ccc(F)c(C(N)=O)c3F)oc2Br)nc1 (centres unmarked) [Compound 238, 3-(1-(5-bromo-4-(5-methoxypyridin-2-yl)oxazol-2-yl)-2-hydroxyethoxy)-2,6-difluorobenzamide] | > 16 |
| NC(=O)c1c(F)ccc(OC(CO)c2nc(-c3ccc(Cl)cc3)c(Br)o2)c1F (centres unmarked) [Compound 39, 3-(1-(5-bromo-4-(4-chlorophenyl)oxazol-2-yl)-2-hydroxyethoxy)-2,6-difluorobenzamide] | < 0.25 |

| Structure (SMILES) | MIC [µg/mL] |
| --- | --- |
| CC(Oc1ccc(F)c(C(N)=O)c1F)c1nc(-c2ccc(C(F)(F)F)cn2)c(Br)o1 (centres unmarked) [Compound 54] | 0.25 to 1 (≈ 0.508 to 2.03 µM) |
| CN(Cc1cnccn1)C(=O)OCC(Oc1ccc(F)c(C(N)=O)c1F)c1nc(-c2ccc(C(F)(F)F)cc2)c(Br)o1 (centres unmarked) [Compound 192, 2-(5-bromo-4-(4-(trifluoromethyl)phenyl)oxazol-2-yl)-2-(3-carbamoyl-2,4-difluorophenoxy)ethyl methyl(pyrazin-2-ylmethyl)carbamate] | 0.25 to 1 (≈ 0.381 to 1.52 µM) |
| Cc1noc(CCNC(=O)OCC(Oc2ccc(F)c(C(N)=O)c2F)c2nc(-c3ccc(C(F)(F)F)cc3)c(Br)o2)n1 (centres unmarked) [Compound 171, 2-(5-bromo-4-(4-(trifluoromethyl)phenyl)oxazol-2-yl)-2-(3-carbamoyl-2,4-difluorophenoxy)ethyl (2-(3-methyl-1,2,4-oxadiazol-5-yl)ethyl)carbamate] | 0.25 to 1 (≈ 0.379 to 1.51 µM) |
| CC(=O)OCC(Oc1ccc(F)c(C(N)=O)c1F)c1nc(-c2ccc(C(F)(F)F)cc2)c(Cl)o1 (centres unmarked) [Compound 42, 2-(3-carbamoyl-2,4-difluorophenoxy)-2-(5-chloro-4-(4-(trifluoromethyl)phenyl)oxazol-2-yl)ethyl acetate] | 0.25 to 1 |
| CC(Oc1ccc(F)c(C(N)=O)c1F)c1nc(-c2ccc(Cl)cc2)ns1 (centres unmarked) [Compound 33, 3-(1-(3-(4-chlorophenyl)-1,2,4-thiadiazol-5-yl)ethoxy)-2,6-difluorobenzamide] | < 0.25 |
| COCCOCC(Oc1ccc(F)c(C(N)=O)c1F)c1nc(-c2ccc(C(F)(F)F)cc2)c(Br)o1 (centres unmarked) [Compound 155, 3-(1-(5-bromo-4-(4-(trifluoromethyl)phenyl)oxazol-2-yl)-2-(2-methoxyethoxy)ethoxy)-2,6-difluorobenzamide] | 0.25 to 1 (≈ 0.442 to 1.77 µM) |
| CC(Oc1ccc(F)c(C(N)=O)c1F)c1nc(Br)c(-c2ccc(C(F)(F)F)cc2)o1 (centres unmarked) [Compound 123] | 1 to 16 (≈ 2.04 to 32.6 µM) |
| NC(=O)c1c(F)ccc(OC(CO)c2nc(-c3ccc(O)cc3)c(Br)o2)c1F (centres unmarked) [Compound 110, 3-(1-(5-bromo-4-(4-hydroxyphenyl)oxazol-2-yl)-2-hydroxyethoxy)-2,6-difluorobenzamide] | > 16 |
| Cc1ccc(CNC(=O)OCC(Oc2ccc(F)c(C(N)=O)c2F)c2nc(-c3ccc(C(F)(F)F)cc3)c(Br)o2)cn1 (centres unmarked) [Compound 214, 2-(5-bromo-4-(4-(trifluoromethyl)phenyl)oxazol-2-yl)-2-(3-carbamoyl-2,4-difluorophenoxy)ethyl ((6-methylpyridin-3-yl)methyl)carbamate] | 0.25 to 1 (≈ 0.381 to 1.53 µM) |
| NC(=O)c1c(F)ccc(OC(C(=O)O)c2coc(-c3ccc(C(F)(F)F)cc3)n2)c1F (centres unmarked) [Compound 132, 2-(3-carbamoyl-2,4-difluorophenoxy)-2-(2-(4-(trifluoromethyl)phenyl)oxazol-4-yl)acetic acid] | > 16 |
| CC(=O)OCC(Oc1ccc(F)c(C(N)=O)c1F)c1nc(-c2ccc(C(F)(F)F)cc2)sc1Br (centres unmarked) [Compound 130, 2-(5-bromo-2-(4-(trifluoromethyl)phenyl)thiazol-4-yl)-2-(3-carbamoyl-2,4-difluorophenoxy)ethyl acetate] | > 16 |
| CCOC(=O)C(Oc1ccc(F)c(C(N)=O)c1F)c1nc(-c2ccc(Cl)cc2)co1 (centres unmarked) [Compound 6, ethyl 2-(3-carbamoyl-2,4-difluorophenoxy)-2-(4-(4-chlorophenyl)oxazol-2-yl)acetate] | 1 to 16 (≈ 2.29 to 36.6 µM) |
| COCCn1cnnc1CNC(=O)OCC(Oc1ccc(F)c(C(N)=O)c1F)c1nc(-c2ccc(C(F)(F)F)cc2)c(Br)o1 (centres unmarked) [Compound 206, 2-(5-bromo-4-(4-(trifluoromethyl)phenyl)oxazol-2-yl)-2-(3-carbamoyl-2,4-difluorophenoxy)ethyl ((4-(2-methoxyethyl)-4H-1,2,4-triazol-3-yl)methyl)carbamate] | 1 to 16 (≈ 1.45 to 23.2 µM) |
| NC(=O)c1c(F)ccc(OC(CO)c2nc(-c3ccc(F)c(F)c3)c(Br)o2)c1F (centres unmarked) [Compound 248, 3-(1-(5-bromo-4-(3,4-difluorophenyl)oxazol-2-yl)-2-hydroxyethoxy)-2,6-difluorobenzamide] | 1 to 16 (≈ 2.1 to 33.7 µM) |
| CNC(=O)C(Oc1ccc(F)c(C(N)=O)c1F)c1nc(-c2ccc(Cl)cc2)cs1 (centres unmarked) [Compound 34, 3-(1-(4-(4-chlorophenyl)thiazol-2-yl)-2-(methylamino)-2-oxoethoxy)-2,6-difluorobenzamide] | < 0.25 |
| NC(=O)c1c(F)ccc(OC(C(=O)O)c2nc(-c3ccc(Cl)cc3)c(Cl)o2)c1F (centres unmarked) [Compound 53, 2-(3-carbamoyl-2,4-difluorophenoxy)-2-(5-chloro-4-(4-chlorophenyl)oxazol-2-yl)acetic acid] | > 16 |
| NC(=O)c1c(F)ccc(OC(CO)c2csc(-c3ccc(C(F)(F)F)cc3)n2)c1F (centres unmarked) [Compound 126, 2,6-difluoro-3-(2-hydroxy-1-(2-(4-(trifluoromethyl)phenyl)thiazol-4-yl)ethoxy)benzamide] | 1 to 16 (≈ 2.25 to 36 µM) |
